# Measurements taken from paper PMC7290441 (Viruses, 2020).
# Where a name gives a salt, the structure may show the parent alone.
# Molecular target: PR8M2-S (A27V/N31S reverse mutant of PR8 M2) (Influenza A virus, UniProt P06821, A27V/N31S)
# Assay type: biochemical
# Settings: pH 5.2
row,SMILES,effect on proton channel function of PR8M2-S
1,"CC(CCc1ccccc1)NC(C)C(O)c1ccc(O)cc1 (centres unmarked) [Nylidrin, nylidrin]",no effect
2,"NC12CC3CC(CC(C3)C1)C2 [AMT, amantadine hydrochloride]",inhibited
